Series [1] is described as follows: ANTS/DPX leakage assay from large unilamellar vesicles. Particulars: POPG LUVs, panel of six human α-defensins, FIG. 1. Here is the method: Large unilamellar vesicles (LUVs) with the low molecular weight fluorophore/quencher pair (ANTS/DPX) encapsulated were prepared using the standard extrusion method. Specifically, phospholipids were dissolved in chloroform at a desired molar ratio, dried as a film by solvent evaporation. After removal of residual solvent, the lipid film was hydrated in the fluorescent solution containing 5 mM HEPES, 12.5 mM ANTS, 45 mM DPX, and 20 mM NaCl, pH 7.0, freeze-thawed for 10 cycles and extruded 10 times through 0.4-μm polycarbonate membranes. LUVs were separated from unencapsulated materials by gel filtration chromatography using a Sepharose CL-4B column eluted with 5 mM HEPES, 100 mM NaCl, pH 7.4 (high-salt). For leakage assays in a low-salt buffer, purified vesicles were further diluted with 5 mM HEPES containing 10 mM NaCl, pH 7.4.
Leakage of ANTS from LUVs, monitored on a LS-55 Perkin Elmer luminescence spectrometer, was characterized by an increase in fluorescence, which was quenched by DPX when encapsulated together inside liposomes (Ellens, H., et al., 1985, “H+- and Ca2+-induced fusion and destabilization of liposomes,” Biochemistry 24:3099-3106). 270 μl ANTS/DPX-encapsulated LUVs (in either high-salt or low-salt buffers) were added to each well of a 96-well plate to a final lipid concentration of 600 μM. 30 μl H2O was added to the first well of each row as a blank, and 30 μl 2.5% (v/v) Triton X-100 to the last (twelfth) well as the control for 100% leakage. Upon addition of 30 μl of a twofold dilution series of defensin, the fluorescence signal was recorded at 515 nm with an excitation wavelength of 353 nm, 10 nm bandwidths and a 390 nm cut-off filter in the emission path. Percent leakage is expressed as: % leakage=((Ft−F0)/(F100−F0))×100 where Ft is the fluorescence determined at different time points after addition of defensin, F0 is the background fluorescence of the “blank” cells, and F100 is the fluorescence of the control cells containing 0.25% Triton X-100. Lipid II Purification
Defensins are believed to kill bacteria by permeabilizing the membrane, causing leakage of intracellular content and eventually cell lysis and death. The present inventors tested the ability of six human α-defensins to induce leakage of fluorophores encapsulated in LUVs (See FIG. 1). […] (A) At high salt concentration (5 mM HEPES, 100 mM NaCl, pH 7.4). (B) At low salt concentration (5 mM HEPES, 10 mM NaCl, pH 7.4). LUVs were 250 nm in diameter and 600 μM (phospholipids) in concentration.
(A) Effects of surface charge on HNP1-induced leakage from LUVs of four different compositions: POPC (circle, surface charge=0), POPC/POPG=3:2 (square, surface charge=−0.4), POPC/POPG=2:3 (triangle, surface charge=−0.6), and POPG (diamond, surface charge=−1). (B) LUV (POPG:DPPC 1:1) leakage induced by L-HNP1 (circles) or D-HNP1 (squares). A two-fold dilution series of HNP1 peptides from 0.19 to 100 μg/ml was incubated with 600 μM LUVs for one hour before readings were taken. Error bars indicate the standard error in triplicate experiments.

The subject of the next series is S. aureus. Particulars: literature (Ericksen 2005; Wei 2009); cited from earlier work.
The nature of series [2]: Surface Plasmon Resonance binding of compounds to immobilized 3-Lipid II. Particulars: SPR, FIG. 5. The method, then:
The present inventors examined if the identified compounds themselves directly interact with Lipid II, which would be expected if they mimic the binding of HNP-1. Binding of compounds was tested directly using Surface Plasmon Resonance with 3-Lipid II immobilized on the chip surface (FIG. 5).

Series [3] relates to Staphylococcus aureus ATCC 29213. Briefly: vCC antibacterial assay, S. aureus. Particulars: 30 minutes exposure, 500 to 1.95 μM. It counts as cell-based. The method, then: (§1) The inventors have now tested the bacterial killing capacity of the identified compounds. The antibacterial activity was determined using the vCC assay as discussed in Ericksen, B., Wu, Z., Lu, W. and Lehrer, R. I. (2005), “Antibacterial activity and specificity of the six human {alpha}-defensins. Antimicrob Agents” Chemother 49, 269-75.). All compounds were tested initially for killing of Staphylococcus aureus ATCC 29213. All compounds were dissolved in DiMethylSulfylOxide (DMSO) and exposed to bacteria for 30 minutes in concentrations ranging from 500 to 1.95 μM. Compounds effectively killing S. aureus were subsequently tested against E. coli ATCC 25922 to assay for strain-selectivity.

For series [4], the system named is intestinal epithelial cell line Caco-2. The series is described as follows: Caco-2 cell viability, MTT assay. It counts as cell-based. Conditions: Caco-2, 24 h. The method, then:
Caco-2 cells were seeded at 2. 10^5 cells/ml and exposed to compounds ranging in concentration from 500 to 3.7125 μM. Cell viability was determined after 24 h by the MTT assay and is expressed as a percentage of the viability of untreated cells.
(In general: Formazan colour is commonly taken as a measure of viable cells.)

In another series the test system is E. coli ATCC 25922. The series is described as follows: vCC antibacterial assay, E. coli (strain-selectivity). It counts as cell-based. Conditions: 30 minutes exposure, 500 to 1.95 μM. Here is the method:
as §1

No end group written: not given here.

On to “HNP4: fourth human neutrophil α-defensin (VCSCRLVFCRRTELRVGNCLIGGVSFTYCCTRV; not fully specified; ends and bridges not checked; UniProt P12838 64-96, looked up)”, for which the “membrane activity (leakage of ANTS-DPX from POPG LUVs)” value in series [1] is on record as “most membrane active defensin in the panel of six”. Also, the “bactericidal activity against S. aureus / Gram-positive bacteria” value in the series on S. aureus was “ineffective against Gram-positive bacteria”.
On to “3-ethyl-5-methyl-4-phenyl-2-[3-(1,3,3-trimethyl-1,3-dihydro-2H-indol-2-ylidene)prop-1-en-1-yl]-1,3-thiazol-3-ium [Compound 7771-0701]”, for which the “binding to 3-Lipid II immobilized on the chip surface” value (“binding to 3-Lipid II immobilized” for short) in series [2] is reported as “bind to Lipid II”. Further, the “killing of S. aureus” value in series [3] is “very efficient in killing of S. aureus”.
Take `Oc1ccc(C(c2ccc(O)cc2)c2ccc(F)cc2)cc1` [Compound 0251-0215, 4-[(4-fluorophenyl)(4-hydroxyphenyl)methyl]phenol]: in series [2], the “binding to 3-Lipid II immobilized” value is on record as “bind to Lipid II”. The “killing of S. aureus” value in series [3] is listed as “very efficient in killing of S. aureus”.
`CC[n+]1c(/C=C/C=C2C=C(/C=C/N(C)c3ccccc3)CC(C)(C)C/2)sc2ccccc21` [Compound 5107930, 2-[3-(5,5-dimethyl-3-{2-[methyl(phenyl)amino]vinyl}-2-cyclohexen-1-ylidene)-1-propen-1-yl]-3-ethyl-1,3-benzothiazol-3-ium iodide]: the cytotoxicity entry in series [4] is given as “Displays relatively low cytotoxicity”. Besides, in series [3], the “killing of S. aureus” value was “Effectively kills S. aureus at low concentrations”. In addition, in the series with E. coli ATCC 25922, the “bactericidal activity against E. coli” value is “Shows little bactericidal activity against E. coli”.
`OCc1ccc2c(c1)C1c3ccccc3C2c2ccccc21` [Compound 5100015, pentacyclo[6.6.6.0˜2,7˜.0˜9,14˜.0˜15,20˜]icosa-2,4,6,9,11,13,15,17,19-nonaen-4-ylmethanol]: in series [2], the “binding to 3-Lipid II immobilized” value is listed as “bind to Lipid II”. The “killing of S. aureus” value in series [3] is reported as “very efficient in killing of S. aureus”.

B1: HD-5: α-defensin Human Defensin 5 (peptide, UniProt Q01523 20-94, looked up)
Defensin alpha 5: ESLQERADEATTQKQSGEDNQDLAISFAGNGLSALRTSGSQARATCYCRTGRCATRESLSGVCEISGRLYRLCCR
modifications: Defensin-5
Take B1: in series [1], the “membrane activity (leakage of ANTS-DPX from POPG LUVs)” value is recorded as “little membrane activity even at high concentrations”. In addition, the “bactericidal activity against S. aureus / Gram-positive bacteria” value in the series with S. aureus is reported as “potently bactericidal”.

The values above are taken from patent publication US8796323B2, “Defensin-like molecules as novel antimicrobial agents” (University of Maryland, Baltimore, priority 2010, dated 2014).
